Test results as given in patent publication US20230263900A1, “DENDRIMER-DRUG CONJUGATE” (priority 2020, published 2023).

What was measured:
in vivo = assay: in vivo
Procedure: The ability to deliver dendrimer-drug conjugates via the pulmonary route was evaluated.
Male Sprague Dawley (SD) rats (8-9 weeks, 270-320 g) were obtained from Monash Animal Services (VIC, Australia). Female F344 rats (8-10 weeks) were supplied by Animal Resources Centre (Perth, Australia).
Blood samples and urine were then collected for up to 5 days. […] At the completion of the study, bronchoalveolar lavage fluid (BALF), lungs, liver, heart, spleen, kidneys and pancreas were collected from rats for biodistribution analysis. BALF was collected via the intratracheal perfusion of 3×5 ml saline Alveolar macrophages were isolated from BALF via centrifugation at 600×g for 10 mins. […] Plasma, urine, feces, and organs were analysed for radiolabel via liquid scintillation counting. Total doxorubicin in plasma, BALF and lung tissue in pulmonary dosed rats was analysed via a fluorescence HPLC (Kaminskas L M, et al, Nanomedicine. 2012 January; 8(1):103-11).
Data are represented as mean±s.d. (n=3-7).

[1] = cited from earlier work
[2] = set-up: species or system rats; conditions: rat, in vivo
Procedure: The dendrimer BHALys[Lys]2[Lys]4[Lys]8[Lys]16(PEG2000)32 was constituted to 10 mg/ml in PBS and stored at −20° C. until required. The construction of the dendrimer was as described previously (Kaminskas L M, et al Mol Pharm. 2008 May-June; 5(3):449-63).
Rats were intravenously administered 1 ml of dendrimer in sterile saline over 2 mins. […] For the pharmacokinetic evaluation of dendrimer administered to the lungs as an aerosolized dose, rats were cannulated only via the right carotid artery. Rats were administered 1 mg of dendrimer in 100 μl saline via intratracheal insertion of the Penn Century micro spray aerosol device to the lungs of rats under isoflurane anaesthesia. […] Plasma, urine, feces and lungs were analysed for radiolabel via liquid scintillation counting
(n=4-5 rats) and data is normalized to 5 mg/kg dendrimer. […] Data in Figure B represents mean±s.d. (n=4 rats) 7 days after the pulmonary dose.

[3] = Release of Remdesivir in PBS buffer (Release Method 1); type: physicochemical; conditions: PBS buffer with 10% v/v DMSO, pH 7.4, 37° C.
Procedure: Release Method 1: An accurately weighed amount of the Remdesivir-dendrimer (10 mg) construct was dissolved in pH 7.4 PBS buffer:DMSO (9:1 v/v) and the volume made up to 20.0 mL in a volumetric flask to give a 0.5 mg/mL stock solution. The stock solution was aliquoted into several 2 mL screw-cap vials, the caps fitted and the vials heated at 37° C. The aliquoted solutions were analyzed at different time points by HPLC (HPLC Method 3). The concentration of Remdesivir RHa-1 was calculated by comparing the area under the peak associated with Remdesivir RHa-1 to a standard curve in MeCN:DMSO (9:1, v/v). The percentage of Remdesivir RHa-1 released is the percentage of available Remdesivir RHa-1 based on the loading of the construct as determined by ^1H NMR analysis (API Loading Method 1).
The extent to which the Remdesivir RHa-1 was released over time in PBS buffer (with 10% v/v DMSO) (pH 7.4) at 37° C. was determined for 5 constructs, RHa-17, RHa-15, RHa-11, RHa-5 and RHa-3 (Release Method 1) over 120 hours.
Trace amounts of other components were also observed (presumed to be degradation products of Remdesivir RHa-1). The area under the resolvable (separated) peaks associated with these degradants was also added to the peak area associated with released Remdesivir RHa-1.
BHALys [Lys]2[Lys]4[Lys]8[Lys]16[Lys]32[(α-NH-6N-TDA-Remdesivir)32(ε-NH-COPEG2000)32] RHa-5 contained 1.77% free Remdesivir RHa-1 at t=0 min. The value of released Remdesivir RHa-1 shown in FIG. 3 has been adjusted to take this into account.

Solubility studies = type: physicochemical
Procedure: The solubility of BHALys[Lys]2[Lys]4[Lys]8[Lys]16[Lys]32[(α-NH-3′ O-Glu-Remdesivir)32(ε-NH-COPEG2000)32] RHa-3 in water was determined to be ≥200 mg/mL (or ≥43.6 mg/mL Remdesivir RHa-1) by adding water (250 μL) to 50.0 mg of BHALys [Lys]2[Lys]4[Lys]8[Lys]16[Lys]32[(α-NH-3′ O-Glu-Remdesivir)32(ε-NH-COPEG2000)32] and swirling briefly. After 2 min, the resulting solution was visually inspected for particulates and found to be a clear solution (see FIG. 2). Solutions shown are 40 mg/ml Remdesivir equivalents (equivalent to 200 mg/ml of conjugate RHa-3).
The solubility of BHALys[Lys]2[Lys]4[Lys]8[Lys]16[Lys]32[(α-NH-6N-TDA-Remdesivir)32(ε-NH-COPEG2000)32] RHa-5, in EtOH:Water (1:9 v/v) was determined to be ≥543 mg/mL (or ≥107 mg/mL Remdesivir RHa-1) by adding water EtOH:Water (1:9 v/v, 400 μL) to 380 mg of RHa-5. The mixture was swirled briefly and left to stand at rt. After 1.5 h the resulting solution (volume recorded=700 μL) was visually inspected for particulates and found to be a clear solution.
The solubility of BHALys[Lys]2[Lys]4[Lys]8[Lys]16[Lys]32[(α-NH-6N-TDA-Remdesivir)32(ε-NH-COPEG1000)32] RHa-17 in EtOH:Water (1:9 v/v) was determined to be ≥354* mg/mL (or ≥85 mg/mL Remdesivir RHa-1) by adding EtOH:Water (1:9 v/v, 958 μL) portionwise to 525 mg of RHa-17, over a period of 1.5 h with intermittent swirling. The resulting solution was visually inspected for particulates and found to be a clear solution.
(*Total volume not recorded. Assumes 1 mg construct contributes to 1 μL of final solution (i.e., total volume of final solution=1483 μL)).

[4] = Viscosity measurements (Viscosity Method 1); type: physicochemical; conditions: 50 mg/mL Remdesivir equivalents in EtOH: Water (1:9 v/v)
Procedure: Viscosities were measured on Anton Paar ViscoQC300 Viscometer using CC-12 cup.
Viscosity Method 1: A reference standard solution (Standard Type: RT500, CAS No. 63148-62-9, Paragon Scientific Ltd) was first recorded and found to be within the range of reported value (at 20° C.: found 556.6 cP, theoretical 551.0 cP; at 25° C.: found 503.3 cP, theoretical 498.6 cP). Accurately weighed quantities of respective conjugates were dissolved in EtOH:Water […] to make a 50 mg/mL Remdesivir equivalent solution (total volume 2.30-2.40 mL) and the viscosity of the solution was recorded at 20° C. and 25° C.
Viscosities of 2 formulations containing either RHa-5 or RHa-17 in EtOH: Water (1:9 v/v) were measured using Viscosity Method 1

[5] = male, Sprague-Dawley, rat, in vivo
[6] = male, Sprague-Dawley, rat, in vivo, inhaled or intranasal, 0.6 mg

COc1cccc2c1C(=O)c1c(O)c3c(c(O)c1C2=O)C[C@@](O)(C(=O)CO)C[C@@H]3O[C@H]1C[C@H](N)[C@H](O)[C@H](C)O1 [Doxorubicin, doxorubicin]
Fabs 0-∞, doxorubicin (in vivo; [5]): 83 ± 9%
Kel, doxorubicin (in vivo; [5]): 0.132 ± 0.010 ^−h
Tmax (in vivo; [6]): 6 ± 3 min
half-life (in vivo; [6]): 300 ± 24 min
AUC (in vivo; male, Sprague-Dawley, rat, in vivo, iv, 0.75 mg/kg): 210 ± 40 ng·h/mL
AUC (in vivo; male, Sprague-Dawley, rat, plasma, inhaled or intranasal, 0.6 mg): 170 ± 20 ng·h/mL
Kel, doxorubicin (in vivo; rats, intravenous, doxorubicin normalized to 0.75 mg/kg): 0.518 ± 0.312 ^−h

N#C[C@@]1(c2ccc3c(N)ncnn23)O[C@H](CO)[C@@H](O)[C@H]1O [GS-441524]
AUC0-24 ([1]; IV infusion of 200 mg Remdesivir, healthy human subjects): 7.7 µM·h
Cmax ([1]; after 200 mg dose of Remdesivir): 152 ng/mL
Peak plasma concentration ([1]; after 30 minutes infusion of Remdesivir): about 150 ng/ml

BHALys[Lys]2[Lys]4[Lys]8[Lys]16(PEG2000)32
Bioavailability after lung delivery [2]: 2.4±3.3%

BHALys[Lys]2[Lys]4[Lys]8[Lys]16[Lys]32[(α-NH-3′O-DGA-Remdesivir)32(ε-NH-COPEG2000)32] [RHa-11]
Approx. Time taken for 50% Remdesivir release [3]: ~3 h

BHALys[Lys]2[Lys]4[Lys]8[Lys]16[Lys]32[(α-NH-3′O-Glu-Remdesivir)32(ε-NH-COPEG2000)32] [RHa-3]
Solubility in water (Solubility studies; water, conjugate mass, visual inspection after 2 min): ≥ 200 mg/mL
Solubility in water, as Remdesivir RHa-1 (Solubility studies; water, expressed as Remdesivir RHa-1): ≥ 43.6 mg/mL
Approx. Time taken for 50% Remdesivir release [3]: >120 h

BHALys[Lys]2[Lys]4[Lys]8[Lys]16[Lys]32[(α-NH-6N-TDA-Remdesivir)32(ε-NH-COPEG1000)32] [RHa-17]
Viscosity at 20° C. [4]: 38.99 cP
Viscosity at 25° C. [4]: 29.32 cP
Solubility in EtOH:Water (1:9 v/v) (Solubility studies; EtOH:Water (1:9 v/v), conjugate mass, rt): ≥ 354 mg/mL
Solubility in EtOH:Water (1:9 v/v), as Remdesivir RHa-1 (Solubility studies; EtOH:Water (1:9 v/v), expressed as Remdesivir RHa-1): ≥ 85 mg/mL
Approx. Time taken for 50% Remdesivir release [3]: ~48 h
